According to patent publication US9498442B2 (ALFA WASSERMANN S.P.A., priority 2010, dated 2016):
≈ marks a conversion by molar mass, not a printed value. Where two headings read alike, the source gives them in different places.

How the values were obtained:
[1] = Stability of rifaximin powder obtained by spray drying on storage; assay type: physicochemical; conditions: for Description / Total impurities / Water content (Karl Fisher) / X-Ray diffraction spectrum: 40° C. ± 2° C., RH 75 ± 5%; for X-Ray diffraction spectrum: complies with an amorphous form of Rifaximin
[2] = Particle size dimension (PSD), Beckman-Coulter LS100 Q; assay type: physicochemical; conditions: solvent White Spirit
Method: The particle size analysis were performed using Beckman—Coulter LS100 Q particle size analyzer equipped with a micro-volume cell. The solvent used is White Spirit (WS). In Table 4 are reported the average size of the particles obtained with spray drying and milling processes.

[3] = Solubility over time of rifaximin preparations in phosphate buffer pH 6.8; assay type: physicochemical
Method: Samples taken at 5-minute intervals during the first hour and at 15-minute intervals in the remaining time, are analysed in HPLC after filtration.

Bulk density = assay type: physicochemical; conditions: 10 ml volumetric flask, three samples
[4] = PK study on dogs of rifaximin prepared by spray drying; assay type: in vivo, dog (beagle); conditions: blood
Method: Capsules of hard gelatin containing only rifaximin were administered, and the pre- and post-dose observations, the body weight and the physical examination were evaluated.
Blood samples were collected from all animals on each day of dosing at: 0 (pre-dose), 1, 2, 4, 6, 8 and 24 hours after each dosing.

[5] = tested on: enteric bacteria pathogens; conditions: cited from earlier work
[6] = tested on: enterotoxogenic Escherichia coli isolates; conditions: cited from earlier work
[7] = Rifaximin solubility at different pH, shake flask method; assay type: physicochemical; conditions: for solubility: thermodynamic from solid, shake flask, 20° C.
Method: The study was conducted in accordance with accepted principles in order to meet the requirements of the Annex to European Commission Directive 92/69/EEC and the OECD Guidelines for Testing of Chemicals (EEC Method A6, OECD Method 105). […] Aliquots of the saturated solutions of rifaximin-α were adequately diluted, then analyzed by a high performance liquid chromatography (HPLC) method.

For `CO[C@H]1/C=C/O[C@@]2(C)Oc3c(C)c(O)c4c(O)c(c5c(nc6cc(C)ccn65)c4c3C2=O)NC(=O)/C(C)=C\C=C\[C@H](C)[C@H](O)[C@@H](C)[C@@H](O)[C@@H](C)[C@H](OC(C)=O)[C@@H]1C` [Example 1, rifaximin], the Description ([1]; 1 month) was “Red-orange”, the Total impurities ([1]; 1 month) was 0.54% and the “Water content (Karl Fisher)” value ([1]; 1 month) was 4.9%. For the same molecule, the X-Ray diffraction spectrum ([1]; 1 month) was “Complies with”, the Description ([1]; 3 months) was “Red-orange” and the Total impurities ([1]; 3 months) was 0.95%. The “Water content (Karl Fisher)” value ([1]; 3 months) was 5.4%, the X-Ray diffraction spectrum ([1]; 3 months) was “Complies with” and the “stability of the obtained rifaximin powder” value ([1]; 40° C.+2, relative humidity 75%, up to three months) was “stable”. For the same molecule, the Description ([1]; T0, acceptance Red-orange powder) was “Red-orange”, the Total impurities ([1]; T0, acceptance ≦2.0%) was 0.51% and the “Water content (Karl Fisher)” value ([1]; T0, acceptance ≦8%) was 2.2%. The X-Ray diffraction spectrum ([1]; T0) was “Complies with”, the “stability of rifaximin in powder form” value ([1]; after three months, 30° C. to 40° C., humidity degree higher than 50%) was “stable” and the “Diameter Particle d10” value ([2]; listed as Spray Drying Process) was 4.56 μm. For the same molecule, the “Diameter Particle d50” value ([2]; listed as Spray Drying Process) was 19.60 μm, the “Diameter Particle d90” value ([2]; listed as Spray Drying Process) was 62.21 μm and the “Solubility over time, Concentration” value ([3]; 10 min, phosphate buffer pH 6.8, 30±0.5° C., listed as Spray drying) was 30.2 µg/mL (≈ 38.4 µM). For the same molecule, the “Solubility over time, Concentration” value ([3]; 15 min, phosphate buffer pH 6.8, 30±0.5° C., listed as Spray drying) was 44.0 µg/mL (≈ 56 µM), the “Solubility over time, Concentration” value ([3]; 20 min, phosphate buffer pH 6.8, 30±0.5° C., listed as Spray drying) was 47.0 µg/mL (≈ 59.8 µM) and the “Solubility over time, Concentration” value ([3]; 25 min, phosphate buffer pH 6.8, 30±0.5° C., listed as Spray drying) was 38.0 µg/mL (≈ 48.4 µM). The “Solubility over time, Concentration” value ([3]; 60 min, phosphate buffer pH 6.8, 30±0.5° C., listed as Spray drying) was 11.0 µg/mL (≈ 14 µM), the “Solubility over time, Concentration” value ([3]; 75 min, phosphate buffer pH 6.8, 30±0.5° C., listed as Spray drying) was 9.9 µg/mL (≈ 12.6 µM) and the “Solubility over time, Concentration” value ([3]; 90 min, phosphate buffer pH 6.8, 30±0.5° C., listed as Spray drying) was 9.5 µg/mL (≈ 12.1 µM). The “Solubility over time, Concentration” value ([3]; 105 min, phosphate buffer pH 6.8, 30±0.5° C., listed as Spray drying) was 9.3 µg/mL (≈ 11.8 µM), the “Solubility over time, Concentration” value ([3]; 120 min, phosphate buffer pH 6.8, 30±0.5° C., listed as Spray drying) was 9.1 µg/mL (≈ 11.6 µM) and the “Solubility over time, Concentration” value ([3]; 135 min, phosphate buffer pH 6.8, 30±0.5° C., listed as Spray drying) was 9.0 µg/mL (≈ 11.5 µM). For the same molecule, the “Solubility over time, Concentration” value ([3]; 150 min, phosphate buffer pH 6.8, 30±0.5° C., listed as Spray drying) was 8.8 µg/mL (≈ 11.2 µM), the solubility at 5 min ([3]; phosphate buffer, 30 °C, pH 6.8, aqueous buffer, thermodynamic from solid, 5 min, 500 mg in 750 ml phosphate buffer pH 6.8, 30±0.5° C., 250 rpm, read-out: Solubility over time, Concentration) was 14.4 µg/mL (≈ 18.3 µM) and the solubility at 30 min ([3]; phosphate buffer, 30 °C, pH 6.8, aqueous buffer, thermodynamic from solid, 30 min, phosphate buffer pH 6.8, 30±0.5° C., read-out: Solubility over time, Concentration) was 28.7 µg/mL (≈ 36.5 µM). The solubility at 35 min ([3]; phosphate buffer, 30 °C, pH 6.8, aqueous buffer, thermodynamic from solid, 35 min, phosphate buffer pH 6.8, 30±0.5° C., read-out: Solubility over time, Concentration) was 22.4 µg/mL (≈ 28.5 µM), the solubility at 40 min ([3]; phosphate buffer, 30 °C, pH 6.8, aqueous buffer, thermodynamic from solid, 40 min, phosphate buffer pH 6.8, 30±0.5° C., read-out: Solubility over time, Concentration) was 17.7 µg/mL (≈ 22.5 µM) and the solubility at 45 min ([3]; phosphate buffer, 30 °C, pH 6.8, aqueous buffer, thermodynamic from solid, 45 min, phosphate buffer pH 6.8, 30±0.5° C., read-out: Solubility over time, Concentration) was 14.9 µg/mL (≈ 19 µM). For the same molecule, the solubility at 50 min ([3]; phosphate buffer, 30 °C, pH 6.8, aqueous buffer, thermodynamic from solid, 50 min, phosphate buffer pH 6.8, 30±0.5° C., read-out: Solubility over time, Concentration) was 13.1 µg/mL (≈ 16.7 µM), the solubility at 55 min ([3]; phosphate buffer, 30 °C, pH 6.8, aqueous buffer, thermodynamic from solid, 55 min, phosphate buffer pH 6.8, 30±0.5° C., read-out: Solubility over time, Concentration) was 11.8 µg/mL (≈ 15 µM) and the bulk density (Bulk density; listed as rifaximin by spay drying) was 0.257 g/mL. It also gave a Tmax ([4]; female, beagle, dog, po, 100 mg/kg) of 2 h, an AUC(0-t) ([4]; female, beagle, dog, po, 100 mg/kg, read-out: AUC0-24 h, mean (±standard error)) of 2850 ± 1490 ng·h/mL and a Cmax ([4]; female, beagle, dog, po, 100 mg/kg, read-out: Cmax, mean (±standard error)) of 1040 ± 588 ng/mL. The AUC(0-t) ([4]; human (calculated), oral, 2.9 mg/kg, calculated from dog values (100 mg/kg, HED 54.4 mg/kg), mean ± standard error, read-out: AUC0-24 h, values calculated in humans proportionally reduced to the dosage 2.9 mg/kg) was 143 ± 80.1 ng·h/mL and the Cmax ([4]; human (calculated), oral, 2.9 mg/kg, calculated from dog values (100 mg/kg, HED 54.4 mg/kg), mean ± standard error, read-out: Cmax, values calculated in humans proportionally reduced to the dosage 2.9 mg/kg) was 56.1 ± 31.6 ng/mL.
For `CO[C@H]1/C=C/O[C@@]2(C)Oc3c(C)c(O)c4c(O)c(c5c(nc6cc(C)ccn65)c4c3C2=O)NC(=O)/C(C)=C\C=C\[C@H](C)[C@H](O)[C@@H](C)[C@@H](O)[C@@H](C)[C@H](OC(C)=O)[C@@H]1C` [rifaximin by milling, rifaximin, reference compound], the “Diameter Particle d10” value ([2]; listed as Milling Process) was 1.84 μm, the “Diameter Particle d50” value ([2]; listed as Milling Process) was 8.17 μm and the “Diameter Particle d90” value ([2]; listed as Milling Process) was 12.92 μm. For the same molecule, the “Solubility over time, Concentration” value ([3]; 5 min, 500 mg in 750 ml phosphate buffer pH 6.8, 30±0.5° C., 250 rpm) was 10.8 µg/mL (≈ 13.7 µM), the “Solubility over time, Concentration” value ([3]; 10 min, phosphate buffer pH 6.8, 30±0.5° C.) was 14.3 µg/mL (≈ 18.2 µM) and the “Solubility over time, Concentration” value ([3]; 15 min, phosphate buffer pH 6.8, 30±0.5° C.) was 15.9 µg/mL (≈ 20.2 µM). For the same molecule, the “Solubility over time, Concentration” value ([3]; 20 min, phosphate buffer pH 6.8, 30±0.5° C.) was 16.7 µg/mL (≈ 21.2 µM), the “Solubility over time, Concentration” value ([3]; 25 min, phosphate buffer pH 6.8, 30±0.5° C.) was 16.9 µg/mL (≈ 21.5 µM) and the “Solubility over time, Concentration” value ([3]; 30 min, phosphate buffer pH 6.8, 30±0.5° C.) was 16.7 µg/mL (≈ 21.2 µM). The “Solubility over time, Concentration” value ([3]; 35 min, phosphate buffer pH 6.8, 30±0.5° C.) was 16.1 µg/mL (≈ 20.5 µM), the “Solubility over time, Concentration” value ([3]; 40 min, phosphate buffer pH 6.8, 30±0.5° C.) was 15.4 µg/mL (≈ 19.6 µM) and the “Solubility over time, Concentration” value ([3]; 45 min, phosphate buffer pH 6.8, 30±0.5° C.) was 14.8 µg/mL (≈ 18.8 µM). The “Solubility over time, Concentration” value ([3]; 50 min, phosphate buffer pH 6.8, 30±0.5° C.) was 14.0 µg/mL (≈ 17.8 µM), the “Solubility over time, Concentration” value ([3]; 55 min, phosphate buffer pH 6.8, 30±0.5° C.) was 13.5 µg/mL (≈ 17.2 µM) and the “Solubility over time, Concentration” value ([3]; 90 min, phosphate buffer pH 6.8, 30±0.5° C.) was 10.9 µg/mL (≈ 13.9 µM). The “Solubility over time, Concentration” value ([3]; 105 min, phosphate buffer pH 6.8, 30±0.5° C.) was 9.8 µg/mL (≈ 12.5 µM), the “Solubility over time, Concentration” value ([3]; 120 min, phosphate buffer pH 6.8, 30±0.5° C.) was 9.0 µg/mL (≈ 11.5 µM) and the “Solubility over time, Concentration” value ([3]; 135 min, phosphate buffer pH 6.8, 30±0.5° C.) was 8.3 µg/mL (≈ 10.6 µM). The “Solubility over time, Concentration” value ([3]; 150 min, phosphate buffer pH 6.8, 30±0.5° C.) was 7.9 µg/mL (≈ 10.1 µM), the solubility at 60 min ([3]; phosphate buffer, 30 °C, pH 6.8, aqueous buffer, thermodynamic from solid, 60 min, phosphate buffer pH 6.8, 30±0.5° C., read-out: Solubility over time, Concentration) was 12.9 µg/mL (≈ 16.4 µM) and the solubility at 75 min ([3]; phosphate buffer, 30 °C, pH 6.8, aqueous buffer, thermodynamic from solid, 75 min, phosphate buffer pH 6.8, 30±0.5° C., read-out: Solubility over time, Concentration) was 12.1 µg/mL (≈ 15.4 µM). The bulk density (Bulk density) was 0.327 g/mL.
For `CO[C@H]1/C=C/O[C@@]2(C)Oc3c(C)c(O)c4c(O)c(c5c(nc6cc(C)ccn65)c4c3C2=O)NC(=O)/C(C)=C\C=C\[C@H](C)[C@H](O)[C@@H](C)[C@@H](O)[C@@H](C)[C@H](OC(C)=O)[C@@H]1C` [rifaximin, (2S,16Z,18E,20S,21S,22R,23R,24R,25S,26S,27S,28E)-5,6,21,23,25 pentahydroxy-27-methoxy-2,4,11,16,20,22,24,26-octamethyl-2,7-(epoxypentadeca-(1,11,13)trienimino) benzofuro (4,5-e) pyrido(1,2,-a) benzimi-dazole-1,15(2H)-dione,25-acetate], the “sub-inhibitory concentration at which alteration of virulence factor occurs” value [5] is listed as 32 folds lower than the MIC values, the “virulence of the pathogens” value ([6]; contact maintained only for 8 hours) is listed as “not abolished” and the “concentration effective in the alteration of the virulence” value ([6]; continuous contact for at least 24 hours) is listed as 8 fold lower than MIC. The “effect of pH variation on solubility” value ([7]; pH variation between 5 and 7) was “does not affect the solubility”.
`CO[C@H]1/C=C/O[C@@]2(C)Oc3c(C)c(O)c4c(O)c(c5c(nc6cc(C)ccn65)c4c3C2=O)NC(=O)/C(C)=C\C=C\[C@H](C)[C@H](O)[C@@H](C)[C@@H](O)[C@@H](C)[C@H](OC(C)=O)[C@@H]1C` [rifaximin-α, rifaximin] showed a solubility ([7]; aqueous buffer, pH 4 buffer solution) of 4.12 µg/mL (≈ 5.24 µM), a solubility ([7]; aqueous buffer, pH 7 buffer solution) of 3.22 µg/mL (≈ 4.1 µM) and a solubility ([7]; aqueous buffer, pH 10 buffer solution) of 299 µg/mL (≈ 380 µM). The solubility ([7]; Purified water, saturated solutions of rifaximin-α) was 3.63 µg/mL (≈ 4.62 µM).
